Reference: the NIST ThermoML archive (doi:10.1007/s10765-011-0995-x)
Numbers after ± are expanded uncertainties.

How the values were obtained:
[1] = xn = mol fraction of the nth substance listed; conditions: 101 kPa, Liquid; for speed of sound: Pulse-echo method
[2] = refractive index (Na D-line) (dimensionless); xn = mol fraction of the nth substance listed; conditions: 101 kPa, Liquid, Standard Abbe refractometry

Cc1cccc(Cl)c1 [3-chlorotoluene] + CCCCCCCCCCO
Conditions	mass density, [1] [kg/m3]	refractive index, [2]	speed of sound, [1] [m/s]	viscosity, [1] [mPa·s]
298.15 K, x1 = 0.0745	837.98 ± 0.41	1.4371 ± 0.0005	1371.6 ± 1.3	10.08 ± 0.097
298.15 K, x1 = 0.1337	847.61 ± 0.4	1.4394 ± 0.0005	1364.4 ± 1.3	8.723 ± 0.086
298.15 K, x1 = 0.2017	859.18 ± 0.38	1.4424 ± 0.0005	1356 ± 1.3	7.28 ± 0.074
298.15 K, x1 = 0.2741	872.19 ± 0.36	1.446 ± 0.0005	1347 ± 1.3	5.927 ± 0.063
298.15 K, x1 = 0.3471	886.08 ± 0.34	1.4501 ± 0.0005	1338 ± 1.3	4.762 ± 0.053
298.15 K, x1 = 0.4139	899.55 ± 0.33	1.4545 ± 0.0005	1329.9 ± 1.3	3.862 ± 0.044
298.15 K, x1 = 0.4616	909.68 ± 0.31	1.4579 ± 0.0005	1324.3 ± 1.3	3.322 ± 0.038
298.15 K, x1 = 0.5532	930.44 ± 0.28	1.4653 ± 0.0005	1314.9 ± 1.3	2.496 ± 0.029
298.15 K, x1 = 0.6282	948.88 ± 0.26	1.4723 ± 0.0005	1308.1 ± 1.3	1.985 ± 0.023
298.15 K, x1 = 0.6772	961.72 ± 0.24	1.4772 ± 0.0005	1304.1 ± 1.3	1.724 ± 0.021
298.15 K, x1 = 0.7447	980.55 ± 0.21	1.4847 ± 0.0005	1300 ± 1.3	1.429 ± 0.017
298.15 K, x1 = 0.8245	1004.78 ± 0.2	1.4947 ± 0.0005	1296.6 ± 1.3	1.17 ± 0.015
298.15 K, x1 = 0.8876	1025.62 ± 0.23	1.5034 ± 0.0005	1296.2 ± 1.3	1.016 ± 0.013
298.15 K, x1 = 0.9433	1045.43 ± 0.26	1.5117 ± 0.0005	1297.1 ± 1.3	0.906 ± 0.012
298.15 K, x1 = 1	1067.29 ± 0.29	1.5207 ± 0.0005	1298.3 ± 1.3	0.798 ± 0.011
303.15 K, x1 = 0.0745	834.43 ± 0.42	1.4353 ± 0.0005	1355.2 ± 1.3	8.289 ± 0.083
303.15 K, x1 = 0.1337	844.01 ± 0.41	1.4378 ± 0.0005	1347 ± 1.3	7.171 ± 0.074
303.15 K, x1 = 0.2017	855.5 ± 0.39	1.4408 ± 0.0005	1337.4 ± 1.3	6.013 ± 0.064
303.15 K, x1 = 0.2741	868.42 ± 0.37	1.4445 ± 0.0005	1327.4 ± 1.3	4.905 ± 0.055
303.15 K, x1 = 0.3471	882.21 ± 0.35	1.4488 ± 0.0005	1318 ± 1.3	3.977 ± 0.045
303.15 K, x1 = 0.4139	895.58 ± 0.33	1.4533 ± 0.0005	1309.9 ± 1.3	3.261 ± 0.037
303.15 K, x1 = 0.4616	905.65 ± 0.32	1.4567 ± 0.0005	1304.4 ± 1.3	2.821 ± 0.033
303.15 K, x1 = 0.5532	926.26 ± 0.29	1.4641 ± 0.0005	1295.5 ± 1.3	2.161 ± 0.025
303.15 K, x1 = 0.6282	944.59 ± 0.26	1.4711 ± 0.0005	1289.3 ± 1.3	1.744 ± 0.021
303.15 K, x1 = 0.6772	957.36 ± 0.24	1.4761 ± 0.0005	1285.8 ± 1.3	1.523 ± 0.018
303.15 K, x1 = 0.7447	976.11 ± 0.22	1.4835 ± 0.0005	1281.9 ± 1.3	1.282 ± 0.016
303.15 K, x1 = 0.8245	1000.26 ± 0.19	1.4932 ± 0.0005	1278.3 ± 1.3	1.063 ± 0.014
303.15 K, x1 = 0.8876	1021.06 ± 0.22	1.5017 ± 0.0005	1276.7 ± 1.3	0.934 ± 0.012
303.15 K, x1 = 0.9433	1040.84 ± 0.26	1.5099 ± 0.0005	1276.5 ± 1.3	0.844 ± 0.012
303.15 K, x1 = 1	1062.81 ± 0.28	1.5189 ± 0.0005	1280.1 ± 1.3	0.746 ± 0.011
308.15 K, x1 = 0.0745	830.88 ± 0.42	1.4334 ± 0.0005	1335 ± 1.3	6.908 ± 0.071
308.15 K, x1 = 0.1337	840.4 ± 0.41	1.436 ± 0.0005	1325.8 ± 1.3	6.001 ± 0.064
308.15 K, x1 = 0.2017	851.82 ± 0.39	1.4391 ± 0.0005	1315.4 ± 1.3	5.022 ± 0.056
308.15 K, x1 = 0.2741	864.64 ± 0.38	1.443 ± 0.0005	1305 ± 1.3	4.123 ± 0.047
308.15 K, x1 = 0.3471	878.33 ± 0.36	1.4473 ± 0.0005	1295.4 ± 1.3	3.348 ± 0.038
308.15 K, x1 = 0.4139	891.6 ± 0.34	1.4518 ± 0.0005	1287.6 ± 1.3	2.771 ± 0.032
308.15 K, x1 = 0.4616	901.59 ± 0.32	1.4553 ± 0.0005	1282.4 ± 1.3	2.423 ± 0.028
308.15 K, x1 = 0.5532	922.06 ± 0.29	1.4628 ± 0.0005	1273.9 ± 1.3	1.862 ± 0.022
308.15 K, x1 = 0.6282	940.26 ± 0.27	1.4697 ± 0.0005	1268.3 ± 1.3	1.521 ± 0.018
308.15 K, x1 = 0.6772	952.94 ± 0.25	1.4747 ± 0.0005	1265.4 ± 1.3	1.343 ± 0.016
308.15 K, x1 = 0.7447	971.61 ± 0.23	1.482 ± 0.0005	1261.9 ± 1.3	1.142 ± 0.014
308.15 K, x1 = 0.8245	995.7 ± 0.19	1.4917 ± 0.0005	1258.4 ± 1.3	0.96 ± 0.013
308.15 K, x1 = 0.8876	1016.44 ± 0.21	1.5 ± 0.0005	1257.5 ± 1.3	0.851 ± 0.012
308.15 K, x1 = 0.9433	1036.25 ± 0.25	1.5082 ± 0.0005	1257.8 ± 1.3	0.777 ± 0.011
308.15 K, x1 = 1	1058.33 ± 0.27	1.5169 ± 0.0005	1262.1 ± 1.3	0.705 ± 0.01
